Legend:
HUVECs = experiment: Tubule formation in HUVECs on reduced growth factor extracellular matrix; assay type: cell-based, human; conditions: 10 and 100 ng/ml compared to the control
Description: (§1) Human umbilical vein endothelial cells (HUVECs; Lonza C2519AS, pooled source, Australia) were grown using standard cell culture conditions in endothelial cell growth medium (EGM Plus®, containing 2% fetal bovine serum, Lonza, Australia). All cells were regularly confirmed to be mycoplasma negative. Two different pooled source cell lines were used in experiments and all were used within passages 2-4. Human adult dermal microvascular endothelial cells were also obtained from Lonza (CC-2543, Lonza Australia) and cultured as above but using endothelial growth medium 2-MV bulletkit. Endothelial colony forming cells (ECFCs) were derived from the peripheral blood of participants in the BioHEART study. This registered study (ACTRN12618001322224) complies with the Declaration of Helsinki and the study protocol and design has been approved by the Northern Sydney Local Health District Human Research Ethics Committee (HREC/17/HAWKE/343). […]
(§2) Once they were ˜70% confluent, cells were re-suspended in diluted EGM Plus® (1:3) and plated on reduced-growth factor extracellular matrix (15 mg/ml, Cultrex, Trevigen, USA) at a density of 1.5×10^4 cells/cm^2. […] Cells were incubated in an EVOS FL Auto Imaging system for 16 hours and tubule formation recorded every hour. Optimal tube formation occurred at the 8-hour timepoint; tubule number at this point was quantified manually using NIH Image J software. […]

[1] = system: human adult dermal microvascular endothelial cells (MVEC); experiment: Tubule formation in human adult dermal microvascular endothelial cells; assay type: cell-based; conditions: CL 316,243 100 ng/ml
Description: as §1, §2

[2] = system: endothelial colony forming cells (ECFC); experiment: Tubule formation in patient-derived endothelial colony forming cells; assay type: cell-based, human
Description: as §1, §2

eNOS [3] = experiment: NOS activity by radioimmunoassay in hind limb tissue; assay type: in vivo, mouse; conditions: ischemic and non-ischemic limbs, 14 days post-surgery
Description: Hind limb tissue including the gastrocnemius and adductor muscles were isolated and collected at 14 or 28 days. Tissues were separated and implanted in OCT or placed in cryovials and snap-frozen in liquid nitrogen or were fixed in 10% formalin for 24-hours and then moved to 70% ethanol for storage.
The activity of NOS was measured using radioimmunoassay according to manufacturer's instructions (Cayman Chemical, USA). Samples were prepared in triplicate and detected using a liquid scintillation counter (5 min detection, Tri-Carb 4910TR 100V, Perkin Elmer, USA). All samples were also assayed in the presence of L-NAME and this was subtracted from the baseline to give a readout of NOS activity.

CD31 = CD31 histological analysis of hind limbs post-ischemia; assay type: in vivo, mouse; conditions: both type 1 diabetes and non-diabetic mice
Description: Formalin fixed paraffin-embedded gastrocnemius was cut into 4 μm sections and then sections were deparaffinized. Heat retrieval was performed with Tris-EDTA buffer at pH 9. Slides were incubated overnight with a rabbit polyclonal CD31 antibody (dilution 1:200, Abcam Ltd, Australia) followed by horseradish peroxidase anti-rabbit Envision system (Dako Cytochemistry, Tokyo, Japan). Staining was developed with 3.3 diaminobenzidine tetrahydrochloride (Dako Cytochemistry, Tokyo, Japan) and counterstained with Mayer's hematoxylin stain. Rabbit IgG negative controls (Dako Cytochemistry, Tokyo, Japan) were used. A total of ten non-overlapping images for each gastrocnemius were taken with a light microscope (Leica, DM750 linked to an ICC50 E camera module). Images were taken at ×40 and analyzed with National Institute of Health Image J 1.51j8 software.

eNOS [4] = experiment: Immunoblot of eNOS expression and serine 1177 phosphorylation in ischemic hind limb; assay type: in vivo, mouse; conditions: ischemic hindlimb, type 1 diabetes model
Description: Gastrocnemius samples were stored at −80° C. and then mechanically homogenized in ice-cold lysis buffer containing 150 mmol/L NaCl, 200 mmol/L Tris-HCl (pH 8.0), 1% Triton X-100, 0.5% deoxycholic acid, 0.1% SDS, N-ethylmaleimide (25 mM) and protease inhibitors (cOmplete™ EDTA-free, Roche Diagnostics). 30 μg of protein lysate was denatured and run under reducing conditions on SDS-PAGE (Bolt™ pre-cast gels and reagents, Thermofisher Scientific, Australia) and transferred onto Immobilon polyvinylidene fluoride membrane (Merck Millipore, Australia). Membranes were incubated in primary antibodies directed at determining protein expression of the following: Nox isoforms (anti-Nox 2, 1:5000; Abcam, Australia; anti-Nox-4, 1:5000; Abcam, Australia); reactive nitrogen species (anti-nitrotyrosine, 1:1000; Abcam, Australia); and both expression and phosphorylation of eNOS (anti Phospho eNOS serine 1177, 1:1000, Cell Signaling Technology, USA; anti-eNOS 1:1000, BD Biosciences, USA) and Akt (anti Phospho Akt 1:1000, Akt 1:1000, Cell Signaling Technology, USA). Specific secondary antibodies recognizing rabbit or mouse primary antibodies were used (IRDye®, Licor; 1:20,000, USA). Membranes were detected using an Odyssey imaging platform (Licor, USA).

C[C@H](Cc1ccc2c(c1)OC(C(=O)[O-])(C(=O)[O-])O2)NC[C@H](O)c1cccc(Cl)c1.[Na+].[Na+] [CL 316,243]
number of tubules formed (HUVECs): significantly increased
angiogenesis (tubule formation) in endothelial cells from adults, dermal source [1]: stimulated angiogenesis
angiogenesis (tubule formation) in ECFCs ([2]; ECFCs from patients with significant coronary artery disease, 100 ng/ml): effectively stimulate angiogenesis
angiogenesis in ECFCs ([2]; cells from relatively healthy participants): did not occur
eNOS activity (eNOS [3]): enhanced eNOS activity
CD31+ staining in ischemic hindlimbs (vascularization) (CD31): greater CD31+ staining
eNOS expression (eNOS [4]): unaltered
phosphorylation of eNOS at serine 1177 (eNOS [4]): did not appear to be affected

— patent US20240148701A1, “WOULD HEALING METHODS” (The University of Sydney, priority 2021, published 2024)
